Source: patent publication US11952611B2, “Methods and systems for detection of antibiotic resistance” (Laboratory Corporation of America Holdings, priority 2017, dated 2024)

Legend:
Format in all cases: cell-based, Staphylococcus aureus
BAA-1720 MRSA [1] = assay: MRSA detection from BD BBL CultureSwabs (Table 4)
Experimental: Bacterial strains were serially diluted and BD BBL CultureSwabs™ were inoculated with 50 ul of LB with approximately the target number of cells of 1000 CFU, 500 CFU, 250 CFU, 125 CFU, 63 CFU, 31 CFU, 16 CFU, or 8 CFU. Swabs were eluted with 1 mL modified Amies solution (included with commercially available Copan e-Swabs™). 135 μL of the eluted solution was added to each well. 15 μL of cefoxitin was added to the wells to reach a final concentration of 1.8 μg/mL, 3.6 μg/mL, or 5.4 μg/mL. The plate was then sealed and incubated at 37° C. for 2 hours. 10 μL of recombinant phage (1.6×10^8 pfu/mL) was added to each well. The plate was then re-sealed and incubated at 37° C. for an additional 2 hours. A master mix was made containing 15 μL 5× lysis buffer, 50 μL luciferase assay buffer, and 1 μL luciferase substrate per well. 65 μL of master mix was added to each well. Luminescence from the reactions were read on a GLOMAX® Navigator and relative luminal units (RLU) for each reaction were plotted and analyzed. RLU values three times greater than an established background RLU level for modified Amies solution (>1500 RLU) were considered positive. The results, shown in Table 4, indicate that a positive MRSA determination was made with 23 CFU in a well, originating from approximately 125 CFU on a swab when incubated with the previously established cut-off of 1.8 μg/mL. Positive results are highlighted in grey.

BAA-1720 MRSA [2] = assay: MRSA detection from Copan e-Swabs (Table 3)
Experimental: Bacterial strains were serially diluted and Copan e-Swabs™ were inoculated with 100 μL of LB with approximately the target number of cells of 1000 CFU, 500 CFU, 250 CFU, 125 CFU, 63 CFU, 31 CFU, 16 CFU, or 8 CFU. Swabs were then eluted in 1 mL modified Amies solution (included with commercially available Copan e-Swabs™). 135 μL of this solution was added to each well of a 96-well plate. 15 μL of cefoxitin was added to the wells to reach a final concentration of 1.8 μg/mL, 3.6 μg/mL, or 5.4 μg/mL. The plate was then sealed and incubated at 37° C. for 2 hours. 10 μL of recombinant phage (1.6×10^8 pfu/mL) was added to each well. The plate was then re-sealed and incubated at 37° C. for an additional 2 hours. A master mix was made containing 15 μL 5× lysis buffer, 50 μL luciferase assay buffer, and 1 μL luciferase substrate per well. 65 μL of master mix was added to each well. Luminescence from the reactions was read on a GLOMAX® Navigator and relative luminal units (RLU) for each reaction were plotted and analyzed. RLU values three times greater than an established background RLU level for modified Amies solution (>1500 RLU) were considered positive. The results, shown in Table 3, indicate that a positive MRSA determination was made with 17 CFU in a well, originating from approximately 125 CFU on a swab when incubated with the previously established cut-off of 1.8 μg/mL. Positive results are in bold.

MSSA = assay: Recombinant phage luciferase assay, oxacillin vs cefoxitin (Table 1), MSSA strains
Experimental: Bacterial strains were serially diluted to approximately 1×10^3 CFU/mL and transferred to a 96-well plate at 135 μL per well. 15 μL of oxacillin or cefoxitin were added to the wells to reach a final concentration of 1.0 μg/mL or 2.0 μg/mL of oxicillin or 2.0 μg/mL, 4.0 μg/mL, 8.0 μg/mL, or 10.0 μg/mL of cefoxitin. The plate was then sealed and incubated at 37° C. for 2 hours. 10 μL of recombinant phage (1.6×10^8 pfu/mL) was added to each well. The plate was then re-sealed and incubated at 37° C. for 2 hours. A master mix was made containing 15 μL 5× lysis buffer, 50 μL luciferase assay buffer, and 1 μL luciferase substrate per well. 65 μL of master mix was added to each well. Luminescence from the reactions was read on a GLOMAX® Navigator and relative luminal units (RLU) for each reaction were analyzed. RLU values three times greater than an established background RLU level for LB (>750 RLU) were considered positive. The results, shown in Table 1, indicate that the recombinant phage are capable of detecting the tested bacterial strains.

[3] = target swab CFU 8, detected CFU 3
[4] = target swab CFU 16, detected CFU 1
[5] = target swab CFU 31, detected CFU 4
[6] = target swab CFU 63, detected CFU 5
[7] = target swab CFU 125, detected CFU 23
[8] = target swab CFU 250, detected CFU 28
[9] = target swab CFU 500, detected CFU 31
[10] = target swab CFU 1000, detected CFU 76
[11] = target swab CFU 8, detected CFU 1
[12] = target swab CFU 31, detected CFU 1
[13] = target swab CFU 63, detected CFU 9
[14] = target swab CFU 125, detected CFU 17
[15] = target swab CFU 250, detected CFU 41
[16] = target swab CFU 500, detected CFU 72
[17] = target swab CFU 1000, detected CFU 136
[18] = strain 12600 MSSA, detected CFU 389
[19] = strain AR0484 MSSA, detected CFU 153
[20] = strain AR0488 MSSA, detected CFU 285
[21] = strain AR0491 MSSA, detected CFU 300

## CO[C@@]1(NC(=O)Cc2cccs2)C(=O)N2C(C(=O)O)=C(COC(N)=O)CS[C@@H]21 [Cefoxitin, cefoxitin]
BAA-1720 MRSA [1]; [3]
  Cefoxitin (RLU) 1.8 ug/mL: 615 RLU
  Cefoxitin (RLU) 3.6 ug/mL: 513 RLU
  Cefoxitin (RLU) 5.4 ug/mL: 789 RLU
BAA-1720 MRSA [1]; [4]
  Cefoxitin (RLU) 1.8 ug/mL: 1711 RLU
  Cefoxitin (RLU) 3.6 ug/mL: 1623 RLU
  Cefoxitin (RLU) 5.4 ug/mL: 1172 RLU
BAA-1720 MRSA [1]; [5]
  Cefoxitin (RLU) 1.8 ug/mL: 3572 RLU
  Cefoxitin (RLU) 3.6 ug/mL: 1469 RLU
  Cefoxitin (RLU) 5.4 ug/mL: 1438 RLU
BAA-1720 MRSA [1]; [6]
  Cefoxitin (RLU) 1.8 ug/mL: 900 RLU
  Cefoxitin (RLU) 3.6 ug/mL: 1068 RLU
  Cefoxitin (RLU) 5.4 ug/mL: 948 RLU
BAA-1720 MRSA [1]; [7]
  Cefoxitin (RLU) 1.8 ug/mL: 3630 RLU
  Cefoxitin (RLU) 3.6 ug/mL: 4720 RLU
  Cefoxitin (RLU) 5.4 ug/mL: 4597 RLU
BAA-1720 MRSA [1]; [8]
  Cefoxitin (RLU) 1.8 ug/mL: 6254 RLU
  Cefoxitin (RLU) 3.6 ug/mL: 3843 RLU
  Cefoxitin (RLU) 5.4 ug/mL: 3381 RLU
BAA-1720 MRSA [1]; [9]
  Cefoxitin (RLU) 1.8 ug/mL: 7571 RLU
  Cefoxitin (RLU) 3.6 ug/mL: 7693 RLU
  Cefoxitin (RLU) 5.4 ug/mL: 5263 RLU
BAA-1720 MRSA [1]; [10]
  Cefoxitin (RLU) 1.8 ug/mL: 13210 RLU
  Cefoxitin (RLU) 3.6 ug/mL: 7193 RLU
  Cefoxitin (RLU) 5.4 ug/mL: 6922 RLU
BAA-1720 MRSA [2]; [11]
  Cefoxitin (RLU) 1.8 ug/mL: 559 RLU
  Cefoxitin (RLU) 3.6 ug/mL: 429 RLU
  Cefoxitin (RLU) 5.4 ug/mL: 336 RLU
BAA-1720 MRSA [2]; [4]
  Cefoxitin (RLU) 1.8 ug/mL: 1179 RLU
  Cefoxitin (RLU) 3.6 ug/mL: 470 RLU
  Cefoxitin (RLU) 5.4 ug/mL: 551 RLU
BAA-1720 MRSA [2]; [12]
  Cefoxitin (RLU) 1.8 ug/mL: 880 RLU
  Cefoxitin (RLU) 3.6 ug/mL: 558 RLU
  Cefoxitin (RLU) 5.4 ug/mL: 1405 RLU
BAA-1720 MRSA [2]; [13]
  Cefoxitin (RLU) 1.8 ug/mL: 1280 RLU
  Cefoxitin (RLU) 3.6 ug/mL: 1568 RLU
  Cefoxitin (RLU) 5.4 ug/mL: 1286 RLU
BAA-1720 MRSA [2]; [14]
  Cefoxitin (RLU) 1.8 ug/mL: 2512 RLU
  Cefoxitin (RLU) 3.6 ug/mL: 1337 RLU
  Cefoxitin (RLU) 5.4 ug/mL: 2501 RLU
BAA-1720 MRSA [2]; [15]
  Cefoxitin (RLU) 1.8 ug/mL: 3766 RLU
  Cefoxitin (RLU) 3.6 ug/mL: 4022 RLU
  Cefoxitin (RLU) 5.4 ug/mL: 3374 RLU
BAA-1720 MRSA [2]; [16]
  Cefoxitin (RLU) 1.8 ug/mL: 11590 RLU
  Cefoxitin (RLU) 3.6 ug/mL: 7112 RLU
  Cefoxitin (RLU) 5.4 ug/mL: 7648 RLU
BAA-1720 MRSA [2]; [17]
  Cefoxitin (RLU) 1.8 ug/mL: 23820 RLU
  Cefoxitin (RLU) 3.6 ug/mL: 17540 RLU
  Cefoxitin (RLU) 5.4 ug/mL: 18400 RLU
MSSA; 2 ug/mL
  detection after incubation with cefoxitin: selective loss of MSSA detection
  susceptibility of MSSA strains: susceptible
MSSA; [18]
  Cefoxitin (RLU) 2 ug/mL: 797 RLU
  Cefoxitin (RLU) 4 ug/mL: 475 RLU
  Cefoxitin (RLU) 8 ug/mL: 332 RLU
  Cefoxitin (RLU) 10 ug/mL: 277 RLU
MSSA; [19]
  Cefoxitin (RLU) 2 ug/mL: 227 RLU
  Cefoxitin (RLU) 4 ug/mL: 195 RLU
  Cefoxitin (RLU) 8 ug/mL: 197 RLU
  Cefoxitin (RLU) 10 ug/mL: 204 RLU
MSSA; [20]
  Cefoxitin (RLU) 2 ug/mL: 254 RLU
  Cefoxitin (RLU) 4 ug/mL: 220 RLU
  Cefoxitin (RLU) 8 ug/mL: 213 RLU
  Cefoxitin (RLU) 10 ug/mL: 229 RLU
MSSA; [21]
  Cefoxitin (RLU) 2 ug/mL: 207 RLU
  Cefoxitin (RLU) 4 ug/mL: 234 RLU
  Cefoxitin (RLU) 8 ug/mL: 187 RLU
  Cefoxitin (RLU) 10 ug/mL: 191 RLU
